Assay results as given in patent US20110236406A1, “IMMUNOGENIC COMPOSITIONS COMPRISING HMGB1 POLYPEPTIDES” (MedImmune, LLC, priority 2004, published 2011).
“Also recorded” adds a separate entry of the source. No end group written: not given here. *: point of attachment. Biotin = O=C1N[C@H]2[C@H](CS[C@H]2CCCCC(=O)*)N1

Legend:
murine BM-DCs [1] = assay: Phenotypic maturation of murine BM-DCs (surface markers, FACS); assay type: cell-based, mouse; conditions: CD11c+ gated BM-DCs, 48 h; HMGB1-Bx 50 μg/ml, peptides 200 μg/ml
Experimental: (§1) Bone marrow-derived DCs (BM-DC) were generated using modifications of the original method described by Inaba et al (42). In brief, bone marrow suspensions were incubated with red cell lysis buffer (PUREGENE™ RBC Lysis Solution, Gentra Systems, Minneapolis, Minn.) to remove red blood cells. After washing in media, lymphocytes and Ia-positive cells were killed with a cocktail of mAbs and rabbit complement for 60 min at 37° C. The mAbs were GK1.5 anti-CD4, TIB211 anti-CD8, TIB 120 anti-Ia, and TM 146 anti B220 (The Abs were kindly provided by Dr. Ralph Steinman). The cells were subsequently cultured in media containing 5% FCS and 10 ng/ml recombinant mouse GM-CSF (R&D Systems; Minneapolis, Minn.) for 7 days. For some experiments the cells were further purified at day 7 using CD11c^+-microbeads (Miltenyi Biotech., Auburn, Calif.) according to the manufacturer's instructions.
(§2) At day 7 of culture, immature DCs were either left untreated, or were stimulated with indicated doses of HMGB1-Bx, HMGB1 peptides, or LPS (E. coli serotype 026:B6, Sigma). In all experiments, DCs were analyzed 48 h after stimulation.
1×10^4 DCs were reacted for at least 20 min at 4° C. in 100 μl of PBS/5% FCS/0.1% sodium azide (staining buffer) with fluorescein isothiocyanate (FITC)-conjugated IgG mAb specific for CD86, CD40 and MHC-II (eBioscience). Cells were then washed 4 times with staining buffer, fixed in 10% formaldehyde in PBS (pH 7.2-7.4) and examined by flow cytometry using a FACScan (BD). In all experiments, isotype controls were included using FITC-conjugated irrelevant mAb of the same Ig class.

allogeneic T cells = assay: Mixed leukocyte reaction, stimulated murine BM-DCs with allogeneic T cells; assay type: cell-based, mouse; conditions: BM-DCs from C57/BL6 mice; HMGB1-Bx 50 μg/ml, peptides 200 μg/ml, 48 h; 5-day co-culture
Experimental: T cells were isolated by negative selection using the mouse SpinSep antibody cocktail from StemCell Technologies (Vancouver, Calif.) according to the manufacturer's instructions. The cell purity of the isolated T cells was routinely ˜99% pure.
To assess levels of T cell activation and proliferation, cells were plated at 10^5 cells per well in a round-bottomed 96-well tray at DC:T cell ratios of 1:120 for 5 days in medium described above. The microcultures were pulsed with (^3H)-thymidine (1 μCi/well) for the final 8 h of culture. Cell cultures were harvested onto glass fiber filters with an automated multiple sample harvester and the amount of isotope incorporation was determined by liquid scintillation β-emission. Responses are reported as mean cpm of thymidine incorporation by triplicate cultures (+/−SEM).

[2] = test system: human monocyte-derived DCs; assay: Cytokine and chemokine secretion by human immature monocyte-derived DCs (ELISA); assay type: cell-based; design: key to TNFα / IL-18 / IL-8 / IL-10 / IL-6 / IL-12: + indicates increase; − indicates no change compared to medium; conditions: for secretion of IL-6 / secretion of IL-8 / secretion of IL-12 (p70) / secretion of IL-18 / secretion of TNF-α: HMGB1-Bx 50 μg/ml, polymyxin B; for secretion of IL-6: FIG. 8A, 8B; for secretion of IL-8 / secretion of IL-12 (p70) / secretion of IL-18 / secretion of TNF-α: FIG. 8C; for IL-6 / IL-8 / IL-10 / IL-12 / IL-18 / TNFα: HUMAN DC, ELISA 48 h after exposure, compared to medium
Experimental: (§3) PBMCs were isolated from the blood of normal volunteers (Long Island Blood Services, Melville, N.Y.) over a Ficoll-Hypaque (Amersham Biosciences, Uppsala, Sweden) density gradient. CD14^+ monocytes were isolated from PBMCs by positive selection using anti-CD14 beads (Miltenyi Biotech., Auburn, Calif.) following the manufacturer's instructions. To generate DCs, CD14^+ cells were cultured in RPMI 1640 medium supplemented with 2 mM L-glutamine (GIBCO-BRL Life Technologies; Grand Island, N.Y.), 50 μM 2-mercaptoethanol (Sigma, St. Louis, Mo.), 10 mM HEPES (GIBCO-BRL), penicillin (100 U/ml)-streptomycin (100 μg/ml) (GIBCO-BRL), and 5% human AB serum (Gemini Bio-Products, Woodland, Calif.). Cultures were maintained for 7 days in 6-well trays (3×10^6 cells/well) supplemented with 1000 U GM-CSF per ml (Immunex, Seattle, Wash.) and 200 U IL-4 per ml (R&D Systems; Minneapolis, Minn.) at days 0, 2, 4 and 6.
(§4) At day 7 of culture, immature DCs were either left untreated (“immature”, IM), or were stimulated with indicated doses of (i) LPS (E. coli serotype 026:B6, Sigma), (ii) 500 ng/ml of trimeric CD40L (Alexis Biochemicals; San Diego, Calif.), (iii) a cocktail of cytokines (CyC) consisting of IL-6 at 1000 U/ml, TNFα at 10 ng/ml, IL-1β at 10 ng/ml (all from R&D Systems) and prostaglandin E2 (PGE-2) at 1 μg/ml (Sigma), or with (v) non-methylated CpG oligonucleotides (5′ […] 3′) at 30 μg/ml. The sequence of this oligonucleotide is known to induce DC maturation (4), except that it contains an unmodified phosphodiester backbone. In all experiments, DCs were analyzed 48 h after stimulation. All experiments using the rB box were performed in the presence of polymyxin B sufficient to neutralize greater than 10-fold more LPS than present in rB box preparations.
(§5) 48 h post activation, the production of cytokines and chemokines in cell culture supernatants was measured by ELISA (Pierce Boston Technology Center, SearchLight™ Proteome Arrays Multiplex Sample Testing Services, Woburn, Mass.).
as §3, with “DCs, CD 14^+” for “DCs, CD14^+”
as §2

murine BM-DCs [3] = assay: Cytokine and chemokine secretion by murine bone marrow-derived DCs (ELISA); assay type: cell-based, mouse; design: key to TNFα / IL-18 / IL-8 / IL-10 / IL-2 / IL-1β / IL-5 / IL-6 / IL-12: + indicates increase; − indicates no change compared to medium; conditions: for IL-1β / IL-2 / IL-5 / IL-6 / IL-10 / IL-12 / IL-8 / IL-18 / TNFα: Murine DC, ELISA 48 h after exposure, compared to medium
Experimental: as §1, §2, §5

immature DCs = assay: Phenotypic maturation of human DCs (surface markers, FACS); assay type: cell-based; conditions: 48 h, rHMGB1 0.1-10.0 μg/ml
Experimental: as §3, §4
1×10^4 DCs were reacted for at least 20 min at 4° C. in 100 μl of PBS/5% FCS/0.1% sodium azide (staining buffer) with phycoerythrin (PE)-conjugated IgG specific for CD206, CD54, HLA-DR (all from Beckton Dickinson Immunostaining Systems; San Jose. Calif.) and CD83 (Immunotech-Beckman-Coulter; Marseille, France) or fluorescein isothiocyanate (FITC)-conjugated IgG mAb specific for CD80, CD40 and CD58 (all from Beckton Dickinson Immunostaining Systems; San Jose. Calif.). Cells were then washed 4 times with staining buffer, fixed in 10% formaldehyde in PBS (pH 7.2-7.4) and examined by flow cytometry using a FACScan (BD). In all experiments, isotype controls were included using an appropriate PE- or FITC-conjugated irrelevant mAb of the same Ig class.

[4] = Example 2, peptides 200 μg/ml, 48 h
[5] = peptides 200 μg/ml, HMGB1-Bx 50 μg/ml, polymyxin B, 48 h
[6] = peptides 200 μg/ml, polymyxin B, 48 h

In the case of “SIGDVAKKLGEMWNNTAA (Biotin-SIGDVAKKLGEMWNNTAA; listed as Homo sapiens) [Hp-121, control peptide]”, the CD40 expression (murine BM-DCs [1]) is reported as “No altered expression”, the CD86 expression (murine BM-DCs [1]) is reported as “No altered expression” and the MHC-II expression (murine BM-DCs [1]) is reported as “No altered expression”. The “T cell stimulatory activity of exposed BM-DCs in mixed lymphocyte reaction” value (“T cell stimulatory activity” below) (allogeneic T cells) was “did not show enhanced T cell stimulatory activity”.
For “HPDASVNFSEFSKKCSER (Biotin-HPDASVNFSEFSKKCSER; listed as Homo sapiens) [Hp-31]”, the “secretion of IL-6” value [2, 4] was “induced secretion of IL-6”, the “secretion of IL-8” value [2, 4] was “not” and the “secretion of IL-12 (p70)” value [2, 4] was “increased secretion”. The “secretion of IL-18” value [2, 4] was “increased secretion”, the “secretion of TNF-α” value [2, 4] was “increased secretion” and the IL-6 [2] was “+”. For the same substance, the IL-8 [2] was “−”, the IL-10 [2] was “−” and the IL-12 [2] was “+”. For the same substance, the IL-18 [2] was “+”, the TNFα [2] was “+” and the IL-1β (murine BM-DCs [3]) was “+”. For the same substance, the IL-2 (murine BM-DCs [3]) was “+”, the IL-5 (murine BM-DCs [3]) was “+” and the IL-6 (murine BM-DCs [3]) was “−”. For the same substance, the IL-10 (murine BM-DCs [3]) was “−”, the IL-12 (murine BM-DCs [3]) was “+” and the “activation of murine BM-DCs” value (murine BM-DCs [3]; peptides 200 μg/ml, 48 h) was “activated”. For the same substance, the “secretion of IL-1β” value (murine BM-DCs [3]; [5]) was “enhanced the production”, the “secretion of IL-2” value (murine BM-DCs [3]; [5]) was “enhanced the production” and the “secretion of IL-5” value (murine BM-DCs [3]; [5]) was “enhanced the production”. For the same substance, the “secretion of IL-12 (p70)” value (murine BM-DCs [3]; [5]) was “enhanced the production” and the “secretion of IL-10” value (murine BM-DCs [3]; [6]) was “not”.
In the case of “recombinant HMGB1: Human recombinant HMGB1 expressed in Escherichia coli; full-length sequence SEQ ID NO:1”, the CD86 expression (immature DCs) is reported as “increases”, the CD40 expression (immature DCs; rB box 100 μg/ml) is reported as “increases” and the CD54 expression (immature DCs; rB box 100 μg/ml) is reported as “increases”. For the same substance, the CD83 expression (immature DCs; rB box 100 μg/ml) was “increases”, the “CD206 (macrophage mannose receptor) expression” value (immature DCs; rB box 100 μg/ml) was “decrease” and the MHCII expression (immature DCs; rB box 100 μg/ml) was “increases”.
“DPNAPKRPPSAFFLFCSE (Biotin-DPNAPKRPPSAFFLFCSE; listed as Homo sapiens) [Hp-91]” was tested, and the “secretion of IL-6” value [2, 4] was “enhanced the IL-6 secretion; also recorded: induced IL-6 secretion”, the “secretion of IL-8” value [2, 4] was “not” and the “secretion of IL-12 (p70)” value [2, 4] was “increased secretion”. The “secretion of IL-18” value [2, 4] was “increased secretion”, the “secretion of TNF-α” value [2, 4] was “increased secretion” and the IL-6 [2] was “+”. The IL-8 [2] was “−”, the IL-10 [2] was “−” and the IL-12 [2] was “+”. The IL-18 [2] was “+”, the TNFα [2] was “+” and the IL-1β (murine BM-DCs [3]) was “+”. For the same substance, the IL-2 (murine BM-DCs [3]) was “+”, the IL-5 (murine BM-DCs [3]) was “+” and the IL-6 (murine BM-DCs [3]) was “−”. The IL-8 (murine BM-DCs [3]) was “−”, the IL-10 (murine BM-DCs [3]) was “−” and the IL-12 (murine BM-DCs [3]) was “+”. For the same substance, the IL-18 (murine BM-DCs [3]) was “−”, the TNFα (murine BM-DCs [3]) was “−” and the “activation of murine BM-DCs” value (murine BM-DCs [3]; peptides 200 μg/ml, 48 h) was “activated”. For the same substance, the “secretion of IL-1β” value (murine BM-DCs [3]; [5]) was “increased production”, the “secretion of IL-2” value (murine BM-DCs [3]; [5]) was “increased production” and the “secretion of IL-5” value (murine BM-DCs [3]; [5]) was “increased production”. For the same substance, the “secretion of IL-8” value (murine BM-DCs [3]; [5]) was “not” and the “secretion of TNF-α” value (murine BM-DCs [3]; [5]) was “not”.
For “YAFFVQTCREEHKKKHPD (Biotin-YAFFVQTCREEHKKKHPD; listed as Homo sapiens) [Hp-16]”, the “activation of human DCs” value [2, 4] was “no effect”, the IL-6 [2] was “−” and the IL-8 [2] was “−”. The IL-10 [2] was “−”, the IL-12 [2] was “−” and the IL-18 [2] was “−”. The TNFα [2] was “−”, the CD40 expression (murine BM-DCs [1]) was “strong upregulation” and the CD86 expression (murine BM-DCs [1]) was “strong upregulation”. The MHC-II expression (murine BM-DCs [1]) was “strong upregulation”, the IL-1β (murine BM-DCs [3]) was “+” and the IL-2 (murine BM-DCs [3]) was “+”. For the same substance, the IL-5 (murine BM-DCs [3]) was “+”, the IL-6 (murine BM-DCs [3]) was “−” and the IL-8 (murine BM-DCs [3]) was “−”. For the same substance, the IL-10 (murine BM-DCs [3]) was “−”, the IL-12 (murine BM-DCs [3]) was “+” and the IL-18 (murine BM-DCs [3]) was “+”. For the same substance, the TNFα (murine BM-DCs [3]) was “−”, the “activation of murine BM-DCs” value (murine BM-DCs [3]; peptides 200 μg/ml, 48 h) was “activated” and the “secretion of IL-2” value (murine BM-DCs [3]; [5]) was “enhanced secretion”. The “secretion of IL-5” value (murine BM-DCs [3]; [5]) was “enhanced secretion”, the “secretion of IL-12 (p70)” value (murine BM-DCs [3]; [5]) was “enhanced secretion” and the “secretion of IL-18” value (murine BM-DCs [3]; [5]) was “enhanced secretion”. For the same substance, the “secretion of IL-10” value (murine BM-DCs [3]; [6]) was “enhanced secretion” and the “T cell stimulatory activity” value (allogeneic T cells) was “activated resting allogeneic T cells”.
For “SERWKTMSAKEKGKFEDM (Biotin-SERWKTMSAKEKGKFEDM; listed as Homo sapiens) [Hp-46]”, the “T cell stimulatory activity” value (allogeneic T cells) was “did not show enhanced T cell stimulatory activity”.
CSEYRPKIKGEHPGLSIG [Hp-106 non-bio] was tested, and the “secretion of IL-6” value [2, 4] was “no activity” and the “secretion of IL-12 (p70)” value (murine BM-DCs [3]; [5]) was “did not enhance IL-12 secretion”.
